In experiment [1] the test system is SK-MEL-2. As to the kind of experiment: NCI cancer cell line panel screening (SRB), melanoma cell line SK-MEL-2. The experiment is classed as cell-based, human. Conditions: read-out: IC50 against melanoma cell line in vitro. As for the experimental part: (§1) According to the standard protocol (http://dtp.nci.nih.gov/dtpstandard/dwindex/index.isp) of the US National Cancer Institute (NCI) (www.dtp.nci.nih.gov), screening of a cancer cell line panel was performed. […] For a general screening experiment, cells were inoculated in 96-well microtiter plates in 100 μl at a plating density ranging from 5000 cells/well to 40,000 cells/well depending on the doubling time of individual cell lines. After cell inoculation, the microtiter plates were incubated at 37° C., 5% CO2, 95% air, and 100% relative humidity for 24 hours prior to addition of test compounds. 24 hours later, two plates of each cell line were fixed in situ with trichloroacetic acid (TCA) to measure the cell population for each cell line at the time of test compound addition (Tz). Test compounds were solubilized in dimethyl sulfoxide at 400-fold the intended final maximum test concentration, and stored frozen prior to use. At the time of compound addition, an aliquot of frozen concentrate was thawed and diluted to twice the intended final maximum test concentration with a complete medium containing 50 μg/ml of gentamicin. Additional four concentration of 10-fold or ½ log serial dilutions were made to provide a total of five compound concentrations plus control. Aliquots of 100 μl of these different compound dilutions were added to appropriate microtiter wells already containing 100 μl of medium, resulting in the required final compound concentrations.
(§2) Following compound addition, the plates were incubated for additional 48 hours at 37° C., 5% CO2, 95% air, and 100% relative humidity. For adherent cells, the assay was terminated by the addition of cold TCA. Cells were fixed in situ by the gentle addition of 50 μl of cold 50% (w/v) TCA (final concentration, 10% TAC) and incubated at 4° C. for 60 minutes. The supernatant was discarded, and the plates were washed five times with tap water and air-dried. A sulforhodamine B (SRB) solution (100 μl) at 0.4% (w/v) in 1% acetic acid was added to each well, and plates were incubated at room temperature for 10 minutes. After staining, unbound dye was removed by washing five times with 1% acetic acid and the plates were air-dried. […] For suspension cells, the methodology was the same except that the assay was terminated by fixing settled cells at the bottom of the wells by gently adding 50 μl of 80% TCA (final concentration, 16% TCA). Using the seven absorbance measurements [time zero (Tz), control growth (C), and test growth rate in the presence of compound at the five concentration levels (Ti)], the growth percentage was calculated at each of the compound concentration levels. Growth inhibition percentage was calculated as follows: [(Ti−Tz)/(C−Tz)]×100 for concentrations for which Ti>/=Tz [(Ti−Tz)/Tz]×100 for concentrations for which Ti<Tz.

Experiment [2] deals with M14. As to the kind of experiment: NCI cancer cell line panel screening (SRB), melanoma cell line M14. The experiment is classed as cell-based. Conditions: Homo sapiens, read-out: IC50 against melanoma cell line in vitro. Here is the method:
(§3) According to the standard protocol (http://dtp.nci.nih.gov/dtpstandard/dwindex/index.isp) of the US National Cancer Institute (NCI) (www.dtp.nci.nih.gov), screening of a cancer cell line panel was performed. Briefly, human cell lines were allowed to grow in an RPMI 1640 medium containing 5% FBS and 2 mM L-glutamine. For a general screening experiment, cells were inoculated in 96-well microtiter plates in 100 μl at a plating density ranging from 5000 cells/well to 40,000 cells/well depending on the doubling time of individual cell lines. After cell inoculation, the microtiter plates were incubated at 37° C., 5% CO2, 95% air, and 100% relative humidity for 24 hours prior to addition of test compounds. 24 hours later, two plates of each cell line were fixed in situ with trichloroacetic acid (TCA) to measure the cell population for each cell line at the time of test compound addition (Tz). Test compounds were solubilized in dimethyl sulfoxide at 400-fold the intended final maximum test concentration, and stored frozen prior to use. At the time of compound addition, an aliquot of frozen concentrate was thawed and diluted to twice the intended final maximum test concentration with a complete medium containing 50 μg/ml of gentamicin. Additional four concentration of 10-fold or ½ log serial dilutions were made to provide a total of five compound concentrations plus control. Aliquots of 100 μl of these different compound dilutions were added to appropriate microtiter wells already containing 100 μl of medium, resulting in the required final compound concentrations.
(§4) Following compound addition, the plates were incubated for additional 48 hours at 37° C., 5% CO2, 95% air, and 100% relative humidity. For adherent cells, the assay was terminated by the addition of cold TCA. Cells were fixed in situ by the gentle addition of 50 μl of cold 50% (w/v) TCA (final concentration, 10% TAC) and incubated at 4° C. for 60 minutes. The supernatant was discarded, and the plates were washed five times with tap water and air-dried. A sulforhodamine B (SRB) solution (100 μl) at 0.4% (w/v) in 1% acetic acid was added to each well, and plates were incubated at room temperature for 10 minutes. After staining, unbound dye was removed by washing five times with 1% acetic acid and the plates were air-dried. Bound stain was subsequently solubilized with 10 mM Trizma base, and the absorbance was read on an automated plate reader at a wavelength of 515 nm. For suspension cells, the methodology was the same except that the assay was terminated by fixing settled cells at the bottom of the wells by gently adding 50 μl of 80% TCA (final concentration, 16% TCA). Using the seven absorbance measurements [time zero (Tz), control growth (C), and test growth rate in the presence of compound at the five concentration levels (Ti)], the growth percentage was calculated at each of the compound concentration levels. Growth inhibition percentage was calculated as follows: [(Ti−Tz)/(C−Tz)]×100 for concentrations for which Ti>/=Tz [(Ti−Tz)/Tz]×100 for concentrations for which Ti<Tz.

Experiment [3] has as its system SK-MEL-28. As to the kind of experiment: NCI cancer cell line panel screening (SRB), melanoma cell line SK-MEL-28. It is filed as cell-based, human. Conditions: Homo sapiens, read-out: IC50 against melanoma cell line in vitro. As for the experimental part: as §1, §2
Experiment [4] has as its system UACC-62. As to the kind of experiment: NCI cancer cell line panel screening (SRB), melanoma cell line UACC-62. It is filed as cell-based. Conditions: Homo sapiens, read-out: IC50 against melanoma cell line in vitro. As for the experimental part: as §3, §4
Experiment [5] has as its system SK-MEL-5. Description: NCI cancer cell line panel screening (SRB), melanoma cell line SK-MEL-5. Conditions: read-out: IC50 against melanoma cell line in vitro. It is filed as cell-based, human. As for the experimental part: as §1, §2
Experiment [6] deals with V600E-B-RAF (Homo sapiens (Human), UniProt P15056, V600E). Description: Protein kinase enzymatic activity (Reaction Biology kinase hotspot, 33P-ATP). The experiment is classed as biochemical. Particulars: read-out: Inhibitory effect against kinase activity, V600E-B-RAF (IC50). As for the experimental part: (§5) Reaction biology kinase hotspot service (http://www.reactionbiology.com) was used to measure IC50. In a final reaction volume of 25 μL, kinase (5 mU to 10 mU) was incubated with 25 mM Tris (pH 7.5), 0.02 mM EGTA, 0.66 mg/ml of myelin basic protein, 10 mM magnesium acetate, and [^33P-ATP] (specific activity of about 500 CPM/pmol, concentration as required). The reaction was initiated by addition of Mg-ATP mix. After incubation for 40 min at room temperature, the reaction was stopped by addition of 5 μl of a 3% phosphoric acid solution. 10 μL of the reaction was then spotted onto a P30 filtermat and washed three times for 5 minutes in 75 mM phosphoric acid and once in methanol prior to drying and scintillation counting.
Chain of V600E-B-RAF (P15056 whole entry V600E): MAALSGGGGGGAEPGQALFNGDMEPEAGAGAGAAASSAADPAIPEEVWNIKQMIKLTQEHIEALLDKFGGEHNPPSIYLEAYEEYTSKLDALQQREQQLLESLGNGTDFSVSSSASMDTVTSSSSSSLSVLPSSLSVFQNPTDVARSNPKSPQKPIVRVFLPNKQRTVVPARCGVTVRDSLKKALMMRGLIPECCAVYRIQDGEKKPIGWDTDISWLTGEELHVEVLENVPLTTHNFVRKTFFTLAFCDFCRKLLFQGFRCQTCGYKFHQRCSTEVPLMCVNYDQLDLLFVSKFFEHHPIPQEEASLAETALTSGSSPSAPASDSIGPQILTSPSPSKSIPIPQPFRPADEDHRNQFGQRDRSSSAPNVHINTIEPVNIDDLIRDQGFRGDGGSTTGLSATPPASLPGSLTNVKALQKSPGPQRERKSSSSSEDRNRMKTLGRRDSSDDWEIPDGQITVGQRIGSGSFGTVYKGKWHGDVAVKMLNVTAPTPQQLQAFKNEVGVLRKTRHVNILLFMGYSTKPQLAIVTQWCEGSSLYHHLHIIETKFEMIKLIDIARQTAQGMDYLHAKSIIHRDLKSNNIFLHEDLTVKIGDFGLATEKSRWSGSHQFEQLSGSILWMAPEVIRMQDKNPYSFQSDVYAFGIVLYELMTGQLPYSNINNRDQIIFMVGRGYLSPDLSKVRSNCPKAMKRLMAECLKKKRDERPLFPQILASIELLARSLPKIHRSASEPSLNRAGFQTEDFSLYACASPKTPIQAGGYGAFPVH

Experiment [7] concerns the target B-RAF (Homo sapiens (Human), UniProt P15056). The experiment is described as above. It is filed as biochemical. Particulars: read-out: Inhibitory effect against kinase activity, B-RAF (IC50). As for the experimental part: as §5
Experiment [8] concerns LOX IMVI. Description: NCI cancer cell line panel screening (SRB), melanoma cell line LOX IMVI. The experiment is classed as cell-based, human. Conditions: read-out: IC50 against melanoma cell line in vitro. As for the experimental part: as §1, §2
The subject of experiment [9] is MDA-MB-435. As to the kind of experiment: NCI cancer cell line panel screening (SRB), melanoma cell line MDA-MB-435. It is filed as cell-based. Conditions: Homo sapiens, read-out: IC50 against melanoma cell line in vitro. Here is the method: as §3, §4
Experiment [10] deals with A375. Description: NCI cancer cell line panel screening (SRB), melanoma cell line A375. The experiment is classed as cell-based. Conditions: Homo sapiens, A-375, read-out: IC50 against melanoma cell line in vitro. Here is the method: as §3, §4
Experiment [11] concerns the target C-RAF (Homo sapiens (Human), UniProt P04049, Y340D/Y341D). Description: Protein kinase enzymatic activity (Reaction Biology kinase hotspot, 33P-ATP). Conditions: read-out: Inhibitory effect against kinase activity, C-RAF (IC50). It is filed as biochemical. As for the experimental part: as §5

Like-named read-outs stand apart in the source and are kept apart here.

This passage reports IC50 results from US10570155B2, “Imidazooxazole derivative having antitumor effect, and pharmaceutical composition including same” (KOREA INSTITUTE OF SCIENCE AND TECHNOLOGY, priority 2016, dated 2020).

One may read the IC50 as the concentration that gives 50% inhibition.

Chain of B-RAF (P15056 whole entry): as the sequence (P15056 whole entry V600E) above, with E600V counted along it
Chain of C-RAF (P04049 306-648 Y340D/Y341D limits assumed): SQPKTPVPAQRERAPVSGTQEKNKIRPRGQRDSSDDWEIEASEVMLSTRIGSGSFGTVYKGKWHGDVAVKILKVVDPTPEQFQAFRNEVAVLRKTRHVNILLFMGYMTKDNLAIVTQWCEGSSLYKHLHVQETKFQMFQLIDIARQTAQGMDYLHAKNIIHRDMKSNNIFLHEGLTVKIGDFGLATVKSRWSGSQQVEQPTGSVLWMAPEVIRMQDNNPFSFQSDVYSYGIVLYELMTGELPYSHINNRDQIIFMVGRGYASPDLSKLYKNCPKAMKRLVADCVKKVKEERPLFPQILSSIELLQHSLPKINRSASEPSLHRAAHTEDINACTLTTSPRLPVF

Regarding `COc1ccc(S(=O)(=O)NCCNc2nccc(-c3c(-c4ccccc4)nc4sccn34)n2)cc1` [2III, 4-Methoxy-N-(2-((4-(6-phenylimidazo[2,1-b]thiazol-5-yl)pyrimidin-2-yl)amino)ethyl)benzenesulfonamide], the IC50 in experiment [1] (Homo sapiens) stood at 4980 nM; in [2], 2770 nM; in [3], 5790 nM; in experiment [4] it was 1170 nM; in [5] (Homo sapiens), 1680 nM; in experiment [6], 77 nM. Besides, the figures for the IC50 in [7], in [8] (Homo sapiens) and in [9] were 459 nM, 3940 nM and 1220 nM, respectively.

In the case of `O=S(=O)(NCCCNc1nccc(-c2c(-c3cccc(O)c3)nc3sccn23)n1)c1ccc(F)cc1` [31III, 4-fluoro-N-(3-((4-(6-(3-hydroxylphenyl)imidazo[2,1-b]thiazol-5-yl)pyrimidin-2-yl)amino)propyl)benzenesulfonamide], the concentration for half-maximal inhibition (IC50) in experiment [1] (Homo sapiens) is 1100 nM; in [2], 60 nM; in experiment [3], 50 nM; in experiment [10], 300 nM; in [4] it was 20 nM; in experiment [5] (Homo sapiens) it was 1200 nM. Also, the IC50 in experiment [11] worked out at 7.83 nM; in [6] it was 0.98 nM; in [7], 4.19 nM; in [8] (Homo sapiens) it was 560 nM; in experiment [9], 240 nM.

Turning to `O=S(=O)(NCCNc1nccc(-c2c(-c3cccc(O)c3)nc3sccn23)n1)c1ccc(F)cc1` [25III, 4-Fluoro-N-(2-((4-(6-(3-hydroxylphenyl)imidazo[2,1-b]thiazol-5-yl)pyrimidin-2-yl)amino)ethyl)benzenesulfonamide], the IC50 in [1] was determined as 4490 nM; in experiment [2], 560 nM; in experiment [3] it was 660 nM; in [10], 480 nM; in experiment [4], 260 nM; in experiment [5], 1610 nM. For the same compound, the IC50 in experiment [6] came to 1 nM; in experiment [7] it was 5.7 nM; in experiment [8], 4110 nM; in [9], 930 nM.

For the compound `CN1CCN(CCNc2nccc(-c3c(-c4cccc(O)c4)nc4occn34)n2)S1(=O)=O` [1II, 2-(2-((4-(6-(3-Hydroxylphenyl)imidazo[2,1-b]oxazol-5-yl)pyrimidin-2-yl)amino)ethyl)-5-methyl-1,2,5-thiadiazolidine 1,1-dioxide], the IC50 in experiment [10] was 60 nM; in experiment [11], 2.95 nM; in experiment [6], 1.85 nM; in experiment [7], 3.23 nM.
